Data published in PubChem BioAssay (NCI).
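GI50 marks 50% less growth. The concentration for full growth arrest is given as TGI.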

Assays:
Experiment in all cases: NCI tumour cell line growth inhibition, 384-well format
SNB-19 CNS = test system: SNB-19 CNS
U251 glioblastoma = test system: U251 glioblastoma
786-0 renal = test system: 786-0 renal
A498 renal = test system: A498 renal
NCI-H460 NSCLC = test system: NCI-H460 NSCLC
SF-295 CNS = test system: SF-295 CNS
HL-60(TB) leukemia = test system: HL-60(TB) leukemia
MOLT-4 leukemia = test system: MOLT-4 leukemia
SW-620 colon = test system: SW-620 colon
SF-539 CNS = test system: SF-539 CNS
SNB-75 CNS = test system: SNB-75 CNS
KM12 colon = test system: KM12 colon
UACC-257 melanoma = test system: UACC-257 melanoma
CAKI-1 renal = test system: CAKI-1 renal
MDA-MB-468 breast = test system: MDA-MB-468 breast
CCRF-CEM leukemia = test system: CCRF-CEM leukemia
NCI-H226 lung = test system: NCI-H226 lung
SK-OV-3 ovarian = test system: SK-OV-3 ovarian
PC-3 prostate = test system: PC-3 prostate
LOX IMVI melanoma = test system: LOX IMVI melanoma
RPMI-8226 leukemia = test system: RPMI-8226 leukemia
SN12C renal = test system: SN12C renal
OVCAR-5 ovarian = test system: OVCAR-5 ovarian
SF-268 CNS = test system: SF-268 CNS
ACHN renal = test system: ACHN renal
MALME-3M melanoma = test system: MALME-3M melanoma
SK-MEL-28 melanoma = test system: SK-MEL-28 melanoma
OVCAR-4 ovarian = test system: OVCAR-4 ovarian
NCI-H23 lung = test system: NCI-H23 lung
OVCAR-3 ovarian = test system: OVCAR-3 ovarian
BT-549 breast = test system: BT-549 breast
HCT-15 colon = test system: HCT-15 colon
HCC-2998 colon = test system: HCC-2998 colon
NCI-H322M lung = test system: NCI-H322M lung
UO-31 renal = test system: UO-31 renal
SK-MEL-5 melanoma = test system: SK-MEL-5 melanoma
HOP-62 NSCLC = test system: HOP-62 NSCLC
MCF7 breast = test system: MCF7 breast
HS 578T breast = test system: HS 578T breast
NCI-H522 lung = test system: NCI-H522 lung
T-47D breast = test system: T-47D breast
MDA-MB-231 breast = test system: MDA-MB-231 breast
DU-145 prostate = test system: DU-145 prostate
K-562 leukemia = test system: K-562 leukemia
OVCAR-8 ovarian = test system: OVCAR-8 ovarian
UACC-62 melanoma = test system: UACC-62 melanoma
HOP-92 NSCLC = test system: HOP-92 NSCLC
HCT-116 colon = test system: HCT-116 colon
A549 NSCLC = test system: A549 NSCLC
TK-10 renal = test system: TK-10 renal
NCI/ADR-RES ovarian = test system: NCI/ADR-RES ovarian
IGROV1 ovarian = test system: IGROV1 ovarian
COLO 205 colon = test system: COLO 205 colon
EKVX NSCLC = test system: EKVX NSCLC
RXF 393 renal = test system: RXF 393 renal
MDA-MB-435 melanoma = test system: MDA-MB-435 melanoma
M14 melanoma = test system: M14 melanoma
HT29 colon = test system: HT29 colon

## COc1ccc(-c2nc(N3CCOCC3)c3sc(CN(C)c4ncc(C(=O)NO)cn4)cc3n2)cn1
SNB-19 CNS
  GI50: < 10 nM
  TGI: 18.7 nM
U251 glioblastoma
  GI50: < 10 nM
  TGI: < 10 nM
786-0 renal
  GI50: < 10 nM
  TGI: 28.4 nM
A498 renal
  GI50: < 10 nM
  TGI: 12.3 nM
NCI-H460 NSCLC
  GI50: < 10 nM
  TGI: 11.7 nM
SF-295 CNS
  GI50: < 10 nM
  TGI: 18.9 nM
HL-60(TB) leukemia
  GI50: < 10 nM
  TGI: < 10 nM
MOLT-4 leukemia
  GI50: < 10 nM
  TGI: < 10 nM
SW-620 colon
  GI50: < 10 nM
  TGI: < 10 nM
SF-539 CNS
  GI50: < 10 nM
  TGI: 13.6 nM
SNB-75 CNS
  GI50: < 10 nM
  TGI: 22.6 nM
KM12 colon
  GI50: < 10 nM
  TGI: 15.1 nM
UACC-257 melanoma
  GI50: < 10 nM
  TGI: < 10 nM
CAKI-1 renal
  GI50: < 10 nM
  TGI: < 10 nM
MDA-MB-468 breast
  GI50: < 10 nM
  TGI: < 10 nM
CCRF-CEM leukemia
  GI50: < 10 nM
  TGI: < 10 nM
NCI-H226 lung
  GI50: < 10 nM
  TGI: 33 nM
SK-OV-3 ovarian
  GI50: < 10 nM
  TGI: < 10 nM
PC-3 prostate
  GI50: < 10 nM
  TGI: 10.7 nM
LOX IMVI melanoma
  GI50: < 10 nM
  TGI: < 10 nM
RPMI-8226 leukemia
  GI50: < 10 nM
  TGI: < 10 nM
SN12C renal
  GI50: < 10 nM
  TGI: 16.3 nM
OVCAR-5 ovarian
  GI50: < 10 nM
  TGI: 16.9 nM
SF-268 CNS
  GI50: < 10 nM
  TGI: < 10 nM
ACHN renal
  GI50: < 10 nM
  TGI: 13.3 nM
MALME-3M melanoma
  GI50: < 10 nM
  TGI: < 10 nM
SK-MEL-28 melanoma
  GI50: < 10 nM
  TGI: 17.9 nM
OVCAR-4 ovarian
  GI50: 13.9 nM
  TGI: 40.7 nM
NCI-H23 lung
  GI50: < 10 nM
  TGI: < 10 nM
OVCAR-3 ovarian
  GI50: < 10 nM
  TGI: < 10 nM
BT-549 breast
  GI50: < 10 nM
  TGI: 13.6 nM
HCT-15 colon
  GI50: < 10 nM
  TGI: 23.2 nM
HCC-2998 colon
  GI50: < 10 nM
  TGI: < 10 nM
NCI-H322M lung
  GI50: < 10 nM
  TGI: 19.1 nM
UO-31 renal
  GI50: < 10 nM
  TGI: 26.9 nM
SK-MEL-5 melanoma
  GI50: < 10 nM
  TGI: < 10 nM
HOP-62 NSCLC
  GI50: < 10 nM
  TGI: 17.4 nM
MCF7 breast
  GI50: < 10 nM
  TGI: < 10 nM
HS 578T breast
  GI50: < 10 nM
  TGI: 16 nM
NCI-H522 lung
  GI50: < 10 nM
  TGI: < 10 nM
T-47D breast
  GI50: < 10 nM
  TGI: < 10 nM
MDA-MB-231 breast
  GI50: < 10 nM
  TGI: < 10 nM
DU-145 prostate
  GI50: < 10 nM
  TGI: < 10 nM
K-562 leukemia
  GI50: < 10 nM
  TGI: < 10 nM
OVCAR-8 ovarian
  GI50: < 10 nM
  TGI: 10.1 nM
UACC-62 melanoma
  GI50: < 10 nM
  TGI: < 10 nM
HOP-92 NSCLC
  GI50: < 10 nM
  TGI: 23.6 nM
HCT-116 colon
  GI50: < 10 nM
  TGI: < 10 nM
A549 NSCLC
  GI50: < 10 nM
  TGI: < 10 nM
TK-10 renal
  GI50: 11.6 nM
  TGI: 28.7 nM
NCI/ADR-RES ovarian
  GI50: < 10 nM
  TGI: 12.5 nM
IGROV1 ovarian
  GI50: < 10 nM
  TGI: 10.6 nM
COLO 205 colon
  GI50: < 10 nM
  TGI: 11 nM
EKVX NSCLC
  GI50: 14 nM
  TGI: 76.5 nM
RXF 393 renal
  GI50: < 10 nM
  TGI: < 10 nM
MDA-MB-435 melanoma
  GI50: < 10 nM
  TGI: 10.1 nM
M14 melanoma
  GI50: < 10 nM
  TGI: < 10 nM
HT29 colon
  GI50: < 10 nM
  TGI: 12.5 nM
